Experimental data published in patent US8318674B2, “Local treatment of bone defects” (Kuros Biosurgery AG, priority 2005, dated 2012).

Key:
[1] = Stability of PTH or TGPTH in buffer (spiked samples, direct ELISA); assay type: physicochemical; details: 0.5 μg/mL, 37° C., distilled water, phosphate buffer saline, tris-buffer saline
Protocol: For the first release assay, a fibrin matrix of 50 μl with 0.1 mg PTH or TGPTH per ml fibrin matrix was incubated at 37° C. in 10 ml buffer. Therefore, the concentration of PTH or TGPTH in the buffer in case of a total release would be 0.5 μg PTH or TGPTH/mL fibrin matrix. In order to compare the stability of PTH or TGPTH during the assay, samples of PTH or TGPTH were diluted directly in the buffer to a concentration of 0.5 μg PTH or TGPTH/mL fibrin matrix. Different buffers were tested: distilled water, phosphate buffer saline, tris-buffer saline.
Aliquots were taken at days 0, 1, 2, 4 and 6 and analysed by direct ELISA. […] Therefore, no conclusion could be made on the release data. The PTH stability was certainly affected by its low concentration and the buffers that were not optimal.
The release experiment was repeated by using a stabilizing buffer containing 50 mM mannitol in a 10 mM sodium acetate buffer. In addition, the buffer was exchanged every 2 days in order to prevent any degradation of peptide. […] The concentration of PTH or TGPTH in the buffer in case of a total release would be 100 μg/mL fibrin matrix (200 times more than before). […] Samples were collected every 2 to 4 days (with a change of buffer) during 2 weeks and analysed by direct ELISA. […]

[2] = target: T1, parathyroid hormone receptor (Homo sapiens, UniProt Q03431); assay: Reporter gene assay for bioactivity of PTH fusion peptides; assay type: cell-based; details: luciferase reporter linked to PTH receptor promoter; equal amounts; compared to international 84 amino acid standard
T1 construct: endogenous in cells; transfected only with a luciferase reporter plasmid driven by the PTH receptor promoter
T1 sequence (Q03431 27-593): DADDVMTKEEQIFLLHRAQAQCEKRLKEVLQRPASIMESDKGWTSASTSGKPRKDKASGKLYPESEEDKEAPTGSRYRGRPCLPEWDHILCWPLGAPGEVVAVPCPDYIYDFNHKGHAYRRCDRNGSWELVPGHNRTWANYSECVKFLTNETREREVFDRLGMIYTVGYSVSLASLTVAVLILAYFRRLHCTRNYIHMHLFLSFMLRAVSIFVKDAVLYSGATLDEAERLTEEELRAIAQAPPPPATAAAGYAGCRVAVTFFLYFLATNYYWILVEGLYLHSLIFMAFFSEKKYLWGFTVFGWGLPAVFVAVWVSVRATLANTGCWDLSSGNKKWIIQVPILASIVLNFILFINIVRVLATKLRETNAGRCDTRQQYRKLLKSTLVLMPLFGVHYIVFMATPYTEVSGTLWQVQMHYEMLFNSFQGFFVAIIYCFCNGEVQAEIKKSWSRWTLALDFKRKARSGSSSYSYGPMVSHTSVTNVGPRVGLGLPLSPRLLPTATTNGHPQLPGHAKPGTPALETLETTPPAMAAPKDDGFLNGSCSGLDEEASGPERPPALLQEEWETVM
Protocol: Cells transfected with a reporter gene linked to a promoter for a PTH receptor were treated with equal amounts of either PTH1-34, TG-pl-PTH1-34 (described hereinafter) or the international 84 amino acid standard. The inhibition of expression of the luciferase reporter gene was measured and compared to transfected cells that were not exposed to PTH in solution (control).
To study the bioactivity of the PTH fusion peptides, a reporter gene assay was established. In this assay, a plasmid that contains luciferase reporter gene which is linked to the promoter for the parathyroid hormone receptor is transfected into cells. Then, if the cell is exposed to PTH and the PTH subsequently binds to its receptor on the cell, a signal cascade, directed through elevated cAMP levels, is initiated. Through a natural feedback regulation, this then leads to a reduction of PTH receptor levels. As the reduction is directed through the promoter, it also then leads to a decrease in production of the linked reporter gene. Using this assay, the activity of both native PTH1-34 as well as TG-pl-PTH1-34 were studied and compared to an international standard.

Row | stability in buffer [1] | Compound | level of activity (reduction in reporter gene expression) [2]
1 | ≤ 2 days | CC[C@H](C)[C@H](NC(=O)[C@H](CCC(=O)O)NC(=O)[C@H](CO)NC(=O)[C@@H](NC(=O)[C@@H](N)CO)C(C)C)C(=O)N[C@@H](CCC(N)=O)C(=O)N[C@@H](CC(C)C)C(=O)N[C@@H](CCSC)C(=O)N[C@@H](Cc1cnc[nH]1)C(=O)N[C@@H](CC(N)=O)C(=O)N[C@@H](CC(C)C)C(=O)NCC(=O)N[C@@H](CCCCN)C(=O)N[C@@H](Cc1cnc[nH]1)C(=O)N[C@@H](CC(C)C)C(=O)N[C@@H](CC(N)=O)C(=O)N[C@@H](CO)C(=O)N[C@@H](CCSC)C(=O)N[C@@H](CCC(=O)O)C(=O)N[C@@H](CCCN=C(N)N)C(=O)N[C@H](C(=O)N[C@@H](CCC(=O)O)C(=O)N[C@@H](Cc1c[nH]c2ccccc12)C(=O)N[C@@H](CC(C)C)C(=O)N[C@@H](CCCN=C(N)N)C(=O)N[C@@H](CCCCN)C(=O)N[C@@H](CCCCN)C(=O)N[C@@H](CC(C)C)C(=O)N[C@@H](CCC(N)=O)C(=O)N[C@@H](CC(=O)O)C(=O)N[C@H](C(=O)N[C@@H](Cc1cnc[nH]1)C(=O)N[C@@H](CC(N)=O)C(=O)N[C@@H](Cc1ccccc1)C(=O)O)C(C)C)C(C)C [PTH1-34] | –
2 | – | NQEQVSPLYKNRSVSEIQLMHNLGKHLNSMERVEWLRKKLQDVHNF [TG-pl-PTH1-34] | the same as for the international standard
